Legend:
[1] = in vivo; cited from earlier work
[2] = test system: non small cell lung cancer (NSCLC) brain metastases; details: eight subjects with newly diagnosed, untreated NSCLC brain metastases; cited from earlier work
NSCLC adenocarcinoma = details: first-line gefitinib, Asian, female, non-smokers; cited from earlier work
[3] = test system: brain metastases from erbB-2 overexpressing, metastatic breast cancer; test: Clinical study of orally administered lapatinib, PET scan of brain lesions; type: in vivo, human; details: one patient, 750 mg lapatinib twice daily, previously treated with trastuzumab
Text: Safety and efficacy assessments (independent review) were to be carried out at 2 and 4-week intervals respectively. PET scans were to be run at baseline, 1 week and 8 weeks and MRI at baseline, 8 weeks, and 16 weeks.

Cn1nnc2c(C(N)=O)ncn2c1=O [Temozolomide]
crossing of the blood-brain barrier [1]: readily crosses the blood-brain barrier

COc1cc2ncnc(Nc3ccc(F)c(Cl)c3)c2cc1OCCCN1CCOCC1 [gefitinib]
subjects with prolonged CNS partial responses [2]: Seven out of eight | partial response rate (NSCLC adenocarcinoma): 69% | systemic disease control rate (NSCLC adenocarcinoma): 80%

CS(=O)(=O)CCNCc1ccc(-c2ccc3ncnc(Nc4ccc(OCc5cccc(F)c5)c(Cl)c4)c3c2)o1.Cc1ccc(S(=O)(=O)O)cc1 [lapatinib, N-{3-Chloro-4-[(3-fluorobenzyl)oxy]phenyl}-6-[5-({[2-(methanesulphonyl)ethyl]amino}methyl)-2-furyl]-4-quinazolinamine ditosylate monhydrate]
initial week 1 PET scan results (brain lesions) [3]: promising activity with a dramatic change in one lesion while other brain lesions showed less change or no change at all

From US20150283139A1, “CANCER TREATMENT METHOD” (SmithKline Beecham (Cork) Limited, priority 2004, published 2015)
